{"source": "patent US11446270B2", "about": "“Leonurine crystal and use thereof in preparation of insulin sensitizer, hypoglycemic drug and lipid-lowering drug” (ZHUHAI HENGQIN NEW DISTRICT ZHONGZHU ZHENGTAI MEDICAL …, priority 2017, dated 2022)", "key": {"[1]": {"assay": "Hygroscopicity, dynamic vapor sorption (DVS), 0-95% RH", "format": "physicochemical", "conditions": "for hygroscopicity (in words) / change of crystal form: range of 0-95% relative humidity", "protocol": "Dynamic vapor sorption (DVS) method, instrument model: SMS DVS Intrinsic, 0˜95% RH, temperature: 25° C.; FTIR method, instrument model: Nicolet 6700, sectral range: 4000˜400 cm^−1, resolution ratio: 4 cm^−1, scanning times: 32, the infrared spectra of the samples were determined by KBr pressed-disk technique method, temperature: 25° C.;\nIn this invention, it is named as leonurine crystal form A, which is monohydrate crystal form, square block crystal (as shown in FIG. 13), no crystal transformation before melting, dehydrates at 120˜150° C. and transform into anhydrous crystal form B, and decomposes at about 250° C. […] Under the condition of, in the suspension experiment at 25° C., in methanol, ethanol, isopropanol, acetone, acetonitrile, tetrahydrofuran, nitromethane, ethyl acetate, isopropyl acetate, isoamyl alcohol, methyl tert-butyl ether, toluene, methyl isobutyl ketone, n-hexane, n-heptane, ether, dichloromethane, chloroform, petroleum ether, water and other solvents; and under the condition of, in the suspension experiment at 50° C., in methanol, ethanol, acetone, methyl ethyl ketone, isopropyl acetate, methyl tert-butyl ether, toluene, n-hexane, n-heptane, diethyl ether, chloroform, petroleum ether, water and other solvents; and under most solvent conditions in suspension and volatilization of mixed solvents at 25° C. and 50° C., form A can be obtained. […] In a range of 0˜95% RH, the dehydration and water absorption behavior of the crystal form is very weak."}, "[2]": {"assay": "Accelerated stability test of leonurine crystal forms", "format": "physicochemical", "conditions": "for Crystal stability: 70% RH, 10 days", "excerpt": "In the invention, the dominant medicinal crystal form was also screened by the accelerated stability experimental method, and observed the transformation among the various crystal forms."}, "[3]": {"system": "Sprague-Dawley male rats", "assay": "Chronic continuous administration for 7 days, insulin sensitivity test in rats", "format": "in vivo", "conditions": "rat, vs control, listed as leonurine crystal form A", "protocol": "Twenty Sprague-Dawley male rats (body weight 180-220 g) were randomly divided into 4 groups, give control solvent and three different doses of leonurine crystal form A respectively. The control solvent group was given an equal volume of DMSO, and the treatment groups were administered at three doses of 30 mg/kg, 60 mg/kg and 120 mg/kg respectively, 5 rats per group, where the leonurine crystal form A was dissolved in DMSO at concentrations of 30 mg/ml, 60 mg/ml and 120 mg/ml respectively. The volume of solvent used per rat is one millilitre per kilogram of body weight. The rats were administered intragastrically with the drugs or control solvent once a day for 7 consecutive days, and performing insulin sensitivity test on the 7th day. The rats were treated with the drugs or control solvent on the day of the test, and weighed before administration, then taking blood from tail vein to measure blood glucose. Each rat was tested for insulin sensitivity 1 hour after administration of the drugs or control solvent, and the rats were not fed food for 4 hours before the insulin sensitivity test to make them fasted but still given water. The insulin dose in the insulin sensitivity test is 0.75 units per kilogram of body weight, and insulin was injected through intraperitonealion. Blood glucose was measured before injection and at 15, 30, 60, 90, and 120 minutes after injection. The data were analyzed by SPSS statistical software (version 11.5), and the results were expressed as mean ±standard error of the mean (mean±SEM). Multiple group comparisons were tested by one-way analysis of variance (ANOVA). P<0.05 was considered as statistically significant."}, "[4]": {"system": "New Zealand white rabbit", "assay": "Serum lipids in hyperlipidemia New Zealand rabbits on high fat diet", "format": "in vivo", "conditions": "12 weeks", "protocol": "Forty-eight male New Zealand rabbits weighed 1.8 to 2.2 kg were housed under 12 h dark-12 h light cycles and allowed food and water ad libitum to adapt to the housing environment for one week, and then randomly divided into 6 groups: • 1) Control group (Normal diet, n=8); Administered intragastrically with ultrapure water; • 2) Model group (High fat diet, n=8); Administered intragastrically with ultrapure water; • 3) Leonurine crystal form A in low dose group (High fat diet, n=8); Administered intragastrically at a dose of 4 mg/kg/day; • 4) Leonurine crystal form A in middle dose group (High fat diet, n=8); Administered intragastrically at a dose of 8 mg/kg/day; • 5) Leonurine crystal form A in high dose group (High fat diet, n=8); […] Administered intragastrically at a dose of 2.5 mg/kg/day; Rabbits were weighed before administered drugs every week, where the dosage of the drug for rabbits is calculate according to the weight; and housed in an air-conditioned room under (24±1° C. room temperature and 55±5% air humidity) and allowed enough food and water ad libitum. After 12 weeks of administration, the rabbits were fasted for 12 h, and blood (2 ml) was drawn from the marginal ear vein for hematology analysis. Hematology analysis: blood samples were let for standing for 2 h and centrifuged (3000 rpm, 10 min, 4° C.) to obtain serum. The serum samples were tested according to the protocols recommended by Nanjing Jiancheng Bioengineering Institute. The total cholesterol (TC), triacylglycerol (TG), low-density cholesterol (LDL-C) and […] (HDL-C) levels in the serum samples were assessed using automatic microplate reader and automatic biochemical analyzer. Statistical analysis: GraphPad Prism 5 software was used to analyze and draw figure. Results were expressed as the mean±standard (mean±SD), and statistical analysis was performed by one-way analysis of variance (ANOVA) or student's t test. A difference with P<0.05 was considered statistically significant. Statistical significance was set at *P<0.05, **P<0.01, ***P<0.001 versus the model group."}, "[5]": {"system": "rhesus monkey", "assay": "Model of rhesus monkey with hyperlipidemia, long-term administration", "format": "in vivo"}, "[6]": {"conditions": "previous toxicological study; cited from earlier work"}, "[7]": {"conditions": "listed as leonurine crystal form A"}, "[8]": {"conditions": "40° C., relative humidity 60%-80%, 10-day stability test, listed as leonurine crystal form A"}, "[9]": {"conditions": "dose not stated, listed as leonurine crystal form A"}, "[10]": {"conditions": "high dose group 16 mg/kg/day intragastric, vs model group"}}, "note": "Entries after “also recorded” stand apart in the source; their conditions may differ.", "data": [{"smiles": "COc1cc(C(=O)OCCCCNC(=N)N)cc(OC)c1O", "note": "[crystal form A, 4-guanidino-1-butyl 4-hydroxy-3,5-dimethoxybenzoate]", "values": [{"measurement": "hygroscopicity, water absorption", "setting": "[1]; 60% RH", "value": "60% RH, water absorption 0.07%"}, {"measurement": "hygroscopicity, water absorption", "setting": "[1]; 80% RH", "value": "80% RH, water absorption 0.12%"}, {"measurement": "hygroscopicity (in words)", "setting": "[1]", "value": "no or almost no hygroscopicity"}, {"measurement": "change of crystal form", "setting": "[1]; listed as Crystal Form A", "value": "didn't change"}, {"measurement": "hygroscopicity (in words)", "setting": "[1]; listed as Crystal Form A", "value": "no or almost no hygroscopicity"}, {"measurement": "change of crystal form", "setting": "[1]; [7]", "value": "does not change"}, {"measurement": "hygroscopicity (in words)", "setting": "[1]; [7]", "value": "no or almost no hygroscopicity"}, {"measurement": "moisture absorption", "setting": "[1]; relative humidity from 0 to 95%", "value": "about 0.15%"}, {"measurement": "Crystal stability", "setting": "[2]; 40° C.", "value": "remain unchanged"}, {"measurement": "Crystal stability", "setting": "[2]; 40° C., listed as A", "value": "stable"}, {"measurement": "crystal transformation behavior", "setting": "[2]; [8]", "value": "no crystal transformation behavior"}, {"measurement": "hygroscopicity (in words)", "setting": "[2]; [8]", "value": "not obvious"}, {"measurement": "stability in accelerating experiments", "setting": "[2]; 40° C./75% RH", "value": "most stable"}, {"measurement": "insulin sensitivity curve", "setting": "[3]; 30 mg/kg/d for 7 days, 30 minute time point, 30 mg/kg/day", "value": "increased insulin sensitivity; also recorded: decreased significantly"}, {"measurement": "insulin sensitivity curve", "setting": "[3]; 30 mg/kg/d for 7 days, 60 minute time point, 30 mg/kg/day", "value": "increased insulin sensitivity; also recorded: decreased significantly"}, {"measurement": "insulin sensitivity curve", "setting": "[3]; 30 mg/kg/d for 7 days, 90 minute time point, 30 mg/kg/day", "value": "increased insulin sensitivity; also recorded: decreased significantly"}, {"measurement": "insulin sensitivity curve", "setting": "[3]; 60 mg/kg/d for 7 days, 30 minute time point, 60 mg/kg/day", "value": "increased insulin sensitivity; also recorded: decreased significantly"}, {"measurement": "insulin sensitivity curve", "setting": "[3]; 60 mg/kg/d for 7 days, 60 minute time point, 60 mg/kg/day", "value": "increased insulin sensitivity; also recorded: decreased significantly"}, {"measurement": "insulin sensitivity curve", "setting": "[3]; 60 mg/kg/d for 7 days, 90 minute time point, 60 mg/kg/day", "value": "increased insulin sensitivity; also recorded: decreased significantly"}, {"measurement": "insulin sensitivity curve", "setting": "[3]; 120 mg/kg/d for 7 days, 60 minute time point, 120 mg/kg/day", "value": "increased insulin sensitivity; also recorded: decreased significantly"}, {"measurement": "serum total cholesterol (TC)", "setting": "[4]; [9]", "value": "reduce; also recorded: decrease"}, {"measurement": "serum triglycerides / total triacylglycerol (TG)", "setting": "[4]; [9]", "value": "reduce; also recorded: decrease"}, {"measurement": "serum total cholesterol (TC)", "setting": "[4]; [10]", "value": "reduced"}, {"measurement": "serum triacylglycerol (TG)", "setting": "[4]; [10]", "value": "reduced"}, {"measurement": "serum triacylglycerol (TG)", "setting": "[4]; middle dose group 8 mg/kg/day intragastric, vs model group", "value": "reduced"}, {"measurement": "low-density lipoprotein (LDL-C)", "setting": "[5]", "value": "decreasing"}, {"measurement": "total cholesterol (TC)", "setting": "[5]", "value": "decreasing"}, {"measurement": "toxicity", "setting": "[6]", "value": "very low"}]}]}
